Source: patent US20230081426A1, “COMPOUNDS AND METHODS FOR KRAS MODULATION AND INDICATIONS THEREFOR” (Plexxikon Inc., priority 2020, published 2023)
Like-named read-outs stand apart in the source and are kept apart here.

Experiments:
[1] = biological target: T1, G12C-mutant human KRAS (amino acid residues 1-188) (Homo sapiens, UniProt P01116, G12C); experiment: KRAS Binding Disruption Assay (AlphaScreen; biotinylated KRpep-2d analogue or RAF1-RBD), G12C; conditions: geometric mean, read-out: KRAS GMean IC50 (uM) MUTATION: G12C
T1 construct: G12D or G12C-mutant human KRAS (amino acid residues 1-188) with FLAG tag; made in house; host or cells: E. coli
Procedure, shortened: (§1)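 Mutant KRAS (5-20 nM) incubated 1 h at 25° C with test compound and 5-20 nM biotinylated KRpep-2d analogue or RAF1-RBD in 20 mM HEPES pH 7.5, 100 mM NaCl, 5 mM MgCl2, 0.01% Tween-20, 0.01% BSA.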

[2] = biological target: T2, G12V-mutant human KRAS (amino acid residues 1-188) (Homo sapiens, UniProt P01116, G12V); experiment: KRAS Binding Competition Assay (AlphaScreen; biotinylated KRpep-2d analogue), G12V; conditions: geometric mean, read-out: KRAS GMean IC50 (uM) MUTATION: G12V
T2 construct: G12V-mutant human KRAS (amino acid residues 1-188) with FLAG tag was purified from E. coli; made in house; host or cells: E. coli

[3] = biological target: T3, G12D-mutant human KRAS (amino acid residues 1-188) (Homo sapiens, UniProt P01116, G12D); experiment: KRAS Binding Disruption Assay (AlphaScreen; biotinylated KRpep-2d analogue or RAF1-RBD), G12D; conditions: for IC50: geometric mean, read-out: KRAS GMean IC50 (uM) MUTATION: G12D
T3 construct: G12D or G12C-mutant human KRAS (amino acid residues 1-188) with FLAG tag; made in house; host or cells: E. coli
Procedure, shortened: as §1

SMILES: CN1CCC[C@H]1COc1nc(N2C[C@H]3CC[C@@H](C2)N3)c2cc(Cl)c(-c3cc(O)cc4ccccc34)c(F)c2n1 [P-0001, 4-(4-((1R,5S)-3,8-diazabicyclo[3.2.1]octan-3-yl)-6-chloro-8-fluoro-2-(((S)-1-methylpyrrolidin-2-yl)methoxy)quinazolin-7-yl)naphthalen-2-ol]
- IC50 [1]: 0.0001 to 10 µM
- IC50 [2]: 10 to 100 µM
- IC50 ([3]; KRAS G12D): 0.0001 to 10 µM
- Improved KRAS G12D Biochemical Potency of Compounds with Bridged vs Non-Bridged R^1 Groups ([3]; Table 3, fold more potent than non-bridged version at the R1 variable): P-0001 is about 70 times more potent than its non- bridged version at the R^1 variable.
- IC50 ([3]; Table 3, bridged vs non-bridged R1): 0.016 µM

SMILES: COC(=O)CCC(=O)N1[C@@H]2CC[C@H]1CN(c1nc(OCC34CCCN3CCC4)nc3cc(-c4cc(O)cc5ccccc45)ccc13)C2 [P-0068, methyl 4-((1R,5S)-3-(7-(3-hydroxynaphthalen-1-yl)-2-((tetrahydro-1H-pyrrolizin-7a(5H)-yl)methoxy)quinazolin-4-yl)-3,8-diazabicyclo[3.2.1]octan-8-yl)-4-oxobutanoate]
- IC50 [1]: 0.0001 to 10 µM
- IC50 [2]: 0.0001 to 10 µM
- IC50 ([3]; KRAS G12D): 0.0001 to 10 µM

SMILES: O=C1NC(=O)C(CCC(=O)N2[C@@H]3CC[C@H]2CN(c2nc(OCC45CCCN4CCC5)nc4c(F)c(-c5cc(O)cc6ccccc56)ccc24)C3)N1 (stereo partly drawn) [P-0375, 5-(3-((1R,5S)-3-(8-fluoro-7-(3-hydroxynaphthalen-1-yl)-2-((tetrahydro-1H-pyrrolizin-7a(5H)-yl)methoxy)quinazolin-4-yl)-3,8-diazabicyclo[3.2.1]octan-8-yl)-3-oxopropyl)imidazolidine-2,4-dione]
- IC50 [1]: 0.0001 to 10 µM
- IC50 [2]: 0.0001 to 10 µM
- IC50 ([3]; KRAS G12D): 0.0001 to 10 µM

SMILES: Cc1cccc2cc(O)cc(-c3ccc4c(N5C[C@H]6CC[C@@H](C5)N6)nc(OCC56CCCN5CCC6)nc4c3F)c12 [P-0085, 4-(4-((1R,5S)-3,8-diazabicyclo[3.2.1]octan-3-yl)-8-fluoro-2-((tetrahydro-1H-pyrrolizin-7a(5H)-yl)methoxy)quinazolin-7-yl)-5-methylnaphthalen-2-ol]
- IC50 [1]: 0.0001 to 10 µM
- IC50 [2]: 0.0001 to 10 µM
- IC50 ([3]; KRAS G12D): 0.0001 to 10 µM

SMILES: CN1CCC[C@H]1COc1nc(N2CC3CCC(C2)N3C(=O)Cc2ccc(N)cc2)c2ccc(-c3cc(O)cc4ccccc34)cc2n1 [P-0115]
- IC50 [1]: 0.0001 to 10 µM
- IC50 [2]: 10 to 100 µM
- IC50 ([3]; KRAS G12D): 0.0001 to 10 µM

SMILES: CN1CCC[C@H]1COc1nc(N2C[C@H]3CC[C@@H](C2)N3C(=O)CN2CCCC2)c2ccc(-c3cc(O)cc4ccccc34)cc2n1 [P-0118, 1-((1R,5S)-3-(7-(3-hydroxynaphthalen-1-yl)-2-(((S)-1-methylpyrrolidin-2-yl)methoxy)quinazolin-4-yl)-3,8-diazabicyclo[3.2.1]octan-8-yl)-2-(pyrrolidin-1-yl)ethan-1-one]
- IC50 [1]: 0.0001 to 10 µM
- IC50 [2]: 10 to 100 µM
- IC50 ([3]; KRAS G12D): 0.0001 to 10 µM

SMILES: Oc1cc(-c2ccc3c(N4C[C@H]5CC[C@@H](C4)N5)nc(OC[C@@]45CCCN4C[C@H](F)C5)nc3c2F)c2c(Cl)cccc2c1 [P-0510, 4-(4-((1R,5S)-3,8-diazabicyclo[3.2.1]octan-3-yl)-8-fluoro-2-(((2R,7aS)-2-fluorotetrahydro-1H-pyrrolizin-7a(5H)-yl)methoxy)quinazolin-7-yl)-5-chloronaphthalen-2-ol]
- IC50 [1]: 0.0001 to 10 µM
- IC50 [2]: 0.0001 to 10 µM
- IC50 ([3]; KRAS G12D): 0.0001 to 10 µM

SMILES: CN1CCC[C@H]1COc1nc(N2CC3CCC2CN3)c2cc(Cl)c(-c3cc(O)cc4ccccc34)c(F)c2n1 (stereo partly drawn) [P-0030, 4-(4-(2,5-diazabicyclo[2.2.2]octan-2-yl)-6-chloro-8-fluoro-2-(((S)-1-methylpyrrolidin-2-yl)methoxy)quinazolin-7-yl)naphthalen-2-ol]
- IC50 [1]: 10 to 100 µM
- IC50 [2]: 10 to 100 µM
- IC50 ([3]; KRAS G12D): 0.0001 to 10 µM

SMILES: Cc1cccc2cccc(-c3ccc4c(N5C[C@H]6CC[C@@H](C5)N6)nc(OCC56CCCN5CCC6)nc4c3F)c12 [P-0005, 4-((1R,5S)-3,8-diazabicyclo[3.2.1]octan-3-yl)-8-fluoro-7-(8-methylnaphthalen-1-yl)-2-((tetrahydro-1H-pyrrolizin-7a(5H)-yl)methoxy)quinazoline]
- IC50 [1]: 0.0001 to 10 µM
- IC50 [2]: 10 to 100 µM
- IC50 ([3]; KRAS G12D): 0.0001 to 10 µM

SMILES: CN1CCN(CCC(=O)N2[C@@H]3CC[C@H]2CN(c2nc(OC[C@@H]4CCCN4C)nc4cc(-c5cc(O)cc6ccccc56)ccc24)C3)CC1 [P-0116, 1-((1R,5S)-3-(7-(3-hydroxynaphthalen-1-yl)-2-(((S)-1-methylpyrrolidin-2-yl)methoxy)quinazolin-4-yl)-3,8-diazabicyclo[3.2.1]octan-8-yl)-3-(4-methylpiperazin-1-yl)propan-1-one]
- IC50 [1]: 10 to 100 µM
- IC50 [2]: 10 to 100 µM
- IC50 ([3]; KRAS G12D): 0.0001 to 10 µM

SMILES: Oc1cc(-c2ncc3c(N4C[C@H]5CC[C@@H](C4)N5)nc(OCC45CCCN4CCC5)nc3c2F)c2ccccc2c1 [P-0055, 4-(4-((1R,5S)-3,8-diazabicyclo[3.2.1]octan-3-yl)-8-fluoro-2-((tetrahydro-1H-pyrrolizin-7a(5H)-yl)methoxy)pyrido[4,3-d]pyrimidin-7-yl)naphthalen-2-ol]
- IC50 [1]: 0.0001 to 10 µM
- IC50 [2]: 0.0001 to 10 µM
- IC50 ([3]; KRAS G12D): 0.0001 to 10 µM

SMILES: O=C1CC(CC(=O)N2[C@@H]3CC[C@H]2CN(c2nc(OCC45CCCN4CCC5)nc4c(F)c(-c5cc(O)cc6ccccc56)ccc24)C3)C(=O)N1 (stereo partly drawn) [P-0356, 3-(2-((1R,5S)-3-(8-fluoro-7-(3-hydroxynaphthalen-1-yl)-2-((tetrahydro-1H-pyrrolizin-7a(5H)-yl)methoxy)quinazolin-4-yl)-3,8-diazabicyclo[3.2.1]octan-8-yl)-2-oxoethyl)pyrrolidine-2,5-dione]
- IC50 [1]: 0.0001 to 10 µM
- IC50 [2]: 0.0001 to 10 µM
- IC50 ([3]; KRAS G12D): 0.0001 to 10 µM

SMILES: NC1=NC(=O)C(CC(=O)N2[C@@H]3CC[C@H]2CN(c2nc(OCC45CCCN4CCC5)nc4c(F)c(-c5cc(O)cc6ccccc56)ccc24)C3)S1 (stereo partly drawn) [P-0384, 2-amino-5-(2-((1R,5S)-3-(8-fluoro-7-(3-hydroxynaphthalen-1-yl)-2-((tetrahydro-1H-pyrrolizin-7a(5H)-yl)methoxy)quinazolin-4-yl)-3,8-diazabicyclo[3.2.1]octan-8-yl)-2-oxoethyl)thiazol-4 (5H)-one]
- IC50 [1]: 0.0001 to 10 µM
- IC50 [2]: 0.0001 to 10 µM
- IC50 ([3]; KRAS G12D): 0.0001 to 10 µM

SMILES: Oc1cc(-c2ccc3c(C4C[C@H]5CC[C@@H](C4)N5)nc(OCC45CCCN4CCC5)nc3c2)c2ccccc2c1 (stereo partly drawn) [P-0053, 4-(4-((1R,5S)-8-azabicyclo[3.2.1]octan-3-yl)-2-((tetrahydro-1H-pyrrolizin-7a(5H)-yl)methoxy)quinazolin-7-yl)naphthalen-2-ol]
- IC50 [1]: 10 to 100 µM
- IC50 [2]: 10 to 100 µM
- IC50 ([3]; KRAS G12D): 0.0001 to 10 µM

SMILES: CN(C)CC(=O)N1[C@@H]2CC[C@H]1CN(c1nc(OCC34CCCN3CCC4)nc3cc(-c4cc(O)cc5ccccc45)ccc13)C2 [P-0066, 2-(dimethylamino)-1-((1R,5S)-3-(7-(3-hydroxynaphthalen-1-yl)-2-((tetrahydro-1H-pyrrolizin-7a(5H)-yl)methoxy)quinazolin-4-yl)-3,8-diazabicyclo[3.2.1]octan-8-yl)ethan-1-one]
- IC50 [1]: 0.0001 to 10 µM
- IC50 [2]: 0.0001 to 10 µM
- IC50 ([3]; KRAS G12D): 0.0001 to 10 µM

SMILES: Oc1cc(-c2ccc3c(N4C[C@H]5CC[C@@H](C4)N5)nc(OCC45CCCN4CCC5)nc3c2F)c2c(Cl)cccc2c1 [P-0136, 4-(4-((1R,5S)-3,8-diazabicyclo[3.2.1]octan-3-yl)-8-fluoro-2-((tetrahydro-1H-pyrrolizin-7a(5H)-yl)methoxy)quinazolin-7-yl)-5-chloronaphthalen-2-ol]
- IC50 [1]: 0.0001 to 10 µM
- IC50 [2]: 0.0001 to 10 µM
- IC50 ([3]; KRAS G12D): 0.0001 to 10 µM

SMILES: CN1CCN(CCCC(=O)N2[C@@H]3CC[C@H]2CN(c2nc(OC[C@@H]4CCCN4C)nc4cc(-c5cc(O)cc6ccccc56)ccc24)C3)CC1 [P-0119, 1-((1R,5S)-3-(7-(3-hydroxynaphthalen-1-yl)-2-(((S)-1-methylpyrrolidin-2-yl)methoxy)quinazolin-4-yl)-3,8-diazabicyclo[3.2.1]octan-8-yl)-4-(4-methylpiperazin-1-yl)butan-1-one]
- IC50 [1]: 0.0001 to 10 µM
- IC50 [2]: 10 to 100 µM
- IC50 ([3]; KRAS G12D): 0.0001 to 10 µM

SMILES: CN1CCC[C@H]1COc1nc(N2C[C@H]3CC[C@@H](C2)N3C(=O)CC2SC(=O)NC2=O)c2ccc(-c3cc(O)cc4ccccc34)c(F)c2n1 (stereo partly drawn) [P-0279, 5-(2-((1R,5S)-3-(8-fluoro-7-(3-hydroxynaphthalen-1-yl)-2-(((S)-1-methylpyrrolidin-2-yl)methoxy)quinazolin-4-yl)-3,8-diazabicyclo[3.2.1]octan-8-yl)-2-oxoethyl)thiazolidine-2,4-dione]
- IC50 [1]: 0.0001 to 10 µM
- IC50 [2]: 0.0001 to 10 µM
- IC50 ([3]; KRAS G12D): 0.0001 to 10 µM

SMILES: NS(=O)(=O)NCC(=O)N1[C@@H]2CC[C@H]1CN(c1nc(OCC34CCCN3CCC4)nc3c(F)c(-c4cc(O)cc5ccccc45)ccc13)C2 [P-0408, N-(2-((1R,5S)-3-(8-fluoro-7-(3-hydroxynaphthalen-1-yl)-2-((tetrahydro-1H-pyrrolizin-7a(5H)-yl)methoxy)quinazolin-4-yl)-3,8-diazabicyclo[3.2.1]octan-8-yl)-2-oxoethyl)aminosulfonamide]
- IC50 [1]: 0.0001 to 10 µM
- IC50 [2]: 0.0001 to 10 µM
- IC50 ([3]; KRAS G12D): 0.0001 to 10 µM

SMILES: CN1CCC[C@H]1COc1nc(N2CC3COCC(C2)N3)c2ccc(-c3cc(O)cc4ccccc34)c(F)c2n1 [P-0249, 4-(4-(3-oxa-7,9-diazabicyclo[3.3.1]nonan-7-yl)-8-fluoro-2-(((S)-1-methylpyrrolidin-2-yl)methoxy)quinazolin-7-yl)naphthalen-2-ol]
- IC50 [1]: 0.0001 to 10 µM
- IC50 [2]: 0.0001 to 10 µM
- IC50 ([3]; KRAS G12D): 0.0001 to 10 µM
